Earlier results on two molecules are cited in patent US20140271892A1, “PHENYLEPHRINE RESINATE PARTICLES HAVING GOOD AUC” (McNeil-PPC, Inc., priority 2013, published 2014).

The conditions of data set [1]: therapeutic dose.
For data set [2] the following is noted: 30 mg dose administered orally over eight hours.

Regarding `CC(=O)Nc1ccc(O)cc1` [acetaminophen, Acetaminophen], the “excreted unchanged in the urine” value in data set [1] was “Less than 9 % of a therapeutic dose”.

With `CNC[C@H](O)c1cccc(O)c1` [phenylephrine, (R)-1-(3-hydroxyphenyl)-2-methylaminoethanol], in data set [2], the metabolized to m-hydroxy-phenylglycol-sulfate is given as 6 % of the dose, the “metabolized to m-hydroxymandelic acid” value is reported as 30 % of the dose, the metabolized to phenylephrine-glucuronide was 12 % of the dose and the metabolized to phenylephrine-sulfate is 47 % of the dose.
